“And” between values parts separate entries of the source, which are not always exact repeats. Equal entries are not always repeated.
Columns and labels:
[1] = Acridine orange self-association (AO-AO dimer), spectrofluorometry λem 530 nm; assay type: binding; settings: hydrochloride
Description: Association constants were calculated using a modification of an equation described by Zaini et al. (1999) to determine equilibrium constants for weakly bound complexes by absorbance spectrophotometry. By definition K=Xd/(Xm* Xm), where K is the binding constant Kassoc, Xd is the concentration of the AO dimer and Xm is the concentration of the AO monomer. Conservation of mass gives Xt=Xm+2*Xd, where Xt is the total concentration of AO in solution. Rearranging the conservation of mass equation gives Xm=Xt−2*Xd, and substituting into the equation for Kassoc and rearranging gives Equation 4: Kassoc(Xt*Xt−4*Xt*Xd+4*Xd*Xd)−Xd=0 EQUATION 4:
Rearranging gives: Xd*Xd−(Xt+1/(4*.Kassoc)*Xd+Xt*Xt/4=0 EQUATION5:
Applying the quadratic formula (X=[−B±SQRT(B^2−4AC]/2A) to Equation 3-5 and taking a physically reasonable root gives Equation 3-6: Xd=[Xt+1/(4*K)−SQRT(Xt/(2*K)+1/[…])]/2 EQUATION 6:
Where SQRT ( ) indicates taking the square root of the content of the parentheses. The fluorescence values at λem 530 nm (F530) is a function of Xt and F530=Xd*ε, where “ε” is the fluorescence yield of the dimer. The equation was solved by non-linear least squares using Prism™ software and binding constants determined. Concentrations of the reactants were adjusted for dilution whereas AO concentrations are reported without adjustment for dilution. Fluorescence values (fi) are reported as raw data normalized to scale and not adjusted by a dilution factor following aliquot additions. Absorbance data taken at 468 nm was also used to calculate the Kassoc for the AO-AO dimer using Equation 6.
The error bars shown standard deviation unless obscured by legend symbols (n=4). The results also indicate the effect of a physiological concentration of NaCl [150 mM] on the fluorescence of AO at both λem 530 nm (green) and λem 635 nm (red) over a range of AO concentrations from 0.5 μM to 10.0 μM. At an AO concentration of between 5-6 μM, the amplitude of green fluorescence at λem 530 nm increases abruptly. The red fluorescence (λem 635 nm) also increases abruptly between 5-6 μM. However, the magnitude of the increase at λem 635 nm is proportionally less than that found at λem 530 nm. As the concentration of AO increases from 5 μM to 6 μM, the mean fluorescence values were changed from 457±16 to 5,197 ±289 at λem 530 nm and from 174±4 to 1,371±41 at λem 635 nm (n=4). […] The example shown in FIG. 3-2B depicts the binding plot calculated at λem 530 nm for the molecular association of AO with itself in the absence of and in the presence of NaCl. The association constants (Kassoc) for AO derived from these two plots are 118,000±16,120 M^−1 (R^2=0.98) in the presence of NaCl [150 mM] and 37,410±4,758 M^−1(R^2=0.97) in the absence of NaCl. Error bars denote standard deviation unless hidden by legend symbols (n=4). The presence of 150 mM NaCl has no significant effect on the fluorescence intensity of AO at either λem 530 nm or λem 635 nm at AO concentrations of 6 μM and above.
Association constants were calculated for AO self-association by assuming the fluorescence values derived at λem 530 nm reflect the extent of dimer formation. Association constants (Kassoc) were calculated from the change in mean fluorescence values (delta fluorescence) at λem 530 nm (see FIG. 3-2B). At AO concentrations from 0.5 μM to 5 μM, Kassoc was determined to be 37,410±4,758 M^−1 (R^2=0.97) in the absence of NaCl and 118,000±16,120 M^−1 (R^2=0.98) in the presence of 150 mM NaCl (see FIG. 3-2B). For AO concentrations >5 μM, the association constants were determined to be 46,700±1,807 M^−1 (R^2=0.99) for AO alone and 41,820±3,671 M^−1 (R^2=0.99) for AO in the presence of NaCl. This indicates a significant AO concentration dependent difference in the association constant in the presence of 150 mM NaCl at low AO concentrations (<5 μM) but not a significant difference at AO concentrations above 5 μM.

[2] = Absorbance binding spectra of doxorubicin titrated with caffeine or chlorophyllin; settings: 10 μM doxorubicin

| Compound | K ± S.D. ([1]; Fluorescence plus NaCl 150 mM, AO [0.5-5.0 μM]) | K ± S.D. ([1]; Fluorescence plus NaCl 150 mM, AO [0.5-5.0 μM], listed as AO-AO) | K ± S.D. ([1]; Fluorescence plus NaCl, AO [6.0-10.0 μM]) | K ± S.D. ([1]; Fluorescence plus NaCl, AO [6.0-10.0 μM], listed as AO-AO) | K ± S.D. ([1]; Fluorescence, AO [0.5-5.0 μM], absence of NaCl) | K ± S.D. ([1]; Fluorescence, AO [0.5-5.0 μM], absence of NaCl, listed as AO-AO) | K ± S.D. ([1]; Fluorescence, AO [6.0-10.0 μM], absence of NaCl) | K ± S.D. ([1]; Fluorescence, AO [6.0-10.0 μM], absence of NaCl, listed as AO-AO) | binding to doxorubicin [2] |
| --- | --- | --- | --- | --- | --- | --- | --- | --- | --- |
| CN(C)c1ccc2cc3ccc(N(C)C)cc3nc2c1.Cl [AO, 3,6-bis[dimethylamino]acridine hydrochloride] | 118,000±16,120 M^−1 and 118,000 M^−1 | 118,000 ± 16,120 M^−1 | 41,820±3,671 M^−1 | 41,820 ± 3,671 M^−1 | 37,410±4,758 M^−1 and 37,410 M^−1 | 37,410 ± 4,758 M^−1 | 46,700±1,807 M^−1 | 46,700 ± 1,807 M^−1 |  |
| Cn1c(=O)c2c(ncn2C)n(C)c1=O [1,3,7-trimethyl xanthine (caffeine), 1,3,7-trimethyl xanthine] |  |  |  |  |  |  |  |  | binds with doxorubicin |

— patent US7662767B2, “Polynucleotide intercalator interceptors and inhibitors” (Materials Evolution and Development USA, Inc., priority 2000, dated 2010)
